According to PubChem BioAssay AID248 (DTP/NCI, 2004):
Toxic doses and inconclusive results are not listed. No stated cut-off is given here; in the data, active means T/C of 150% or more; inactive means T/C below 125%.

Tested on: L1210 leukemia ip in BDF1 mice, survival T/C
Assay: NCI In Vivo Anticancer Drug Screen. Data for tumor model L1210 Leukemia (intraperitoneal) in B6D2F1 (BDF1) mice
Conditions: endpoint: mean survival time, higher = longer survival
Outline: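 Read-out is survival time, reported as the treated-group measurement over the vehicle-control measurement.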

[1] = dose: 100.0 mg/kg/injection, schedule: Q01DX009 (ip), vehicle: Klucel (hydroxypropylcellulose) (HPC)
[2] = dose: 100.0 mg/kg/injection, schedule: Q04DX003 (ip), vehicle: Klucel (hydroxypropylcellulose) (HPC)
[3] = dose: 200.0 mg/kg/injection, schedule: Q01DX009 (ip), vehicle: Klucel (hydroxypropylcellulose) (HPC)
[4] = dose: 200.0 mg/kg/injection, schedule: Q04DX003 (ip), vehicle: Klucel (hydroxypropylcellulose) (HPC)
[5] = dose: 400.0 mg/kg/injection, schedule: Q01DX009 (ip), vehicle: Klucel (hydroxypropylcellulose) (HPC)
[6] = dose: 25.0 mg/kg/injection, schedule: Q01DX009 (ip), vehicle: saline with Tween-80
[7] = dose: 50.0 mg/kg/injection, schedule: Q01DX009 (ip), vehicle: saline with Tween-80
[8] = dose: 100.0 mg/kg/injection, schedule: Q01DX009 (ip), vehicle: saline with Tween-80
[9] = dose: 200.0 mg/kg/injection, schedule: Q01DX009 (ip), vehicle: saline with Tween-80
[10] = dose: 100.0 mg/kg/injection, schedule: Q01DX001 (ip), vehicle: other
[11] = dose: 200.0 mg/kg/injection, schedule: Q01DX001 (ip), vehicle: other
[12] = dose: 200.0 mg/kg/injection, schedule: Q01DX Z (ip), vehicle: methylcellulose (MC)
[13] = dose: 300.0 mg/kg/injection, schedule: Q04DX003 (ip), vehicle: saline
[14] = dose: 100.0 mg/kg/injection, schedule: Q04DX003 (ip), vehicle: saline
[15] = dose: 200.0 mg/kg/injection, schedule: Q04DX003 (ip), vehicle: saline
[16] = dose: 400.0 mg/kg/injection, schedule: Q04DX003 (ip), vehicle: saline

Measured: T/C

CC(OC(=O)c1ccccc1)c1ccccc1 (stereo not drawn)
inactive: [1] 94 % of control | [2] 101 % of control | [3] 100 % of control | [4] 103 % of control | [5] 96 % of control | dose: 400.0 mg/kg/injection, schedule: Q04DX003 (ip), vehicle: Klucel (hydroxypropylcellulose) (HPC) 101 % of control

O=C(Cn1cc[n+](CC(=O)c2ccccc2)c1)c1ccccc1
inactive: [6] 98 % of control | [7] 90 % of control | [8] 102 % of control

CCOc1ccccc1Cl
inactive: [8] 97 % of control | [9] 102 % of control | dose: 400.0 mg/kg/injection, schedule: Q01DX009 (ip), vehicle: saline with Tween-80 95 % of control

CC(C)=NNC(=O)Nc1cccc(C)c1C
inactive: [1] 90 % of control | [3] 91 % of control

CC(C)O/N=C(/N)N=C(N)N
inactive: [10] 98 % of control | [11] 106 % of control

CCN(CCCl)CCNc1c2ccccc2nc2c1ccc1ccccc12
inactive: dose: 1.25 mg/kg/injection, schedule: Q01DX005 (ip), vehicle: saline 116 % of control | dose: 2.5 mg/kg/injection, schedule: Q01DX005 (ip), vehicle: saline 115 % of control | dose: 5.0 mg/kg/injection, schedule: Q01DX005 (ip), vehicle: saline 107 % of control

Cc1ccc(Nc2cc(N)nc(N)n2)cc1Cl
inactive: dose: 100.0 mg/kg/injection, schedule: Q01DX Z (ip), vehicle: methylcellulose (MC) 101 % of control | [12] 89 % of control

CCCCCCCCOC(CN)C(Cl)(Cl)Cl (stereo not drawn)
inactive: dose: 6.25 mg/kg/injection, schedule: Q01DX009 (ip), vehicle: saline with Tween-80 103 % of control | dose: 6.25 mg/kg/injection, schedule: Q04DX003 (ip), vehicle: saline with Tween-80 91 % of control | dose: 12.5 mg/kg/injection, schedule: Q01DX009 (ip), vehicle: saline with Tween-80 100 % of control | dose: 12.5 mg/kg/injection, schedule: Q04DX003 (ip), vehicle: saline with Tween-80 94 % of control | [6] 100 % of control | dose: 25.0 mg/kg/injection, schedule: Q04DX003 (ip), vehicle: saline with Tween-80 94 % of control

O=C(O)/C(=C\c1ccccc1)c1ccc([N+](=O)[O-])cc1
inactive: dose: 100.0 mg/kg/injection, schedule: Q04DX003 (ip), vehicle: saline with Tween-80 103 % of control | dose: 200.0 mg/kg/injection, schedule: Q04DX003 (ip), vehicle: saline with Tween-80 92 % of control | dose: 400.0 mg/kg/injection, schedule: Q04DX003 (ip), vehicle: saline with Tween-80 92 % of control

CC(=O)OCC(C)CCC(=O)C(C)C1C(=O)CC2CC3CC(OC(C)=O)CCC3(C)CC21C (stereo not drawn)
inactive: dose: 100.0 mg/kg/injection, schedule: Q04DX002 (ip), vehicle: Klucel (hydroxypropylcellulose) (HPC) 96 % of control | dose: 200.0 mg/kg/injection, schedule: Q04DX002 (ip), vehicle: Klucel (hydroxypropylcellulose) (HPC) 100 % of control | dose: 400.0 mg/kg/injection, schedule: Q04DX002 (ip), vehicle: Klucel (hydroxypropylcellulose) (HPC) 96 % of control

CCCCCCCC/C=C\CCCCCCCC(=O)NCCCOCCOCCOCC
inactive: dose: 75.0 mg/kg/injection, schedule: Q01DX009 (ip), vehicle: saline 97 % of control | dose: 75.0 mg/kg/injection, schedule: Q04DX003 (ip), vehicle: saline 94 % of control | dose: 150.0 mg/kg/injection, schedule: Q01DX009 (ip), vehicle: saline 101 % of control | dose: 150.0 mg/kg/injection, schedule: Q04DX003 (ip), vehicle: saline 90 % of control | dose: 300.0 mg/kg/injection, schedule: Q01DX009 (ip), vehicle: saline 87 % of control | [13] 95 % of control

O=C1NC(=O)C(=Cc2ccccc2)C(=O)N1
inactive: dose: 100.0 mg/kg/injection, schedule: Q04DX002 (ip), vehicle: saline with Tween-80 98 % of control | [12] 94 % of control | dose: 200.0 mg/kg/injection, schedule: Q04DX002 (ip), vehicle: saline with Tween-80 106 % of control

O=C(CCl)c1ccc(O)c(O)c1
inactive: dose: 6.25 mg/kg/injection, schedule: Q01DX009 (ip), vehicle: saline 94 % of control | dose: 12.5 mg/kg/injection, schedule: Q01DX009 (ip), vehicle: saline 105 % of control | dose: 33.0 mg/kg/injection, schedule: Q01DX001 (ip), vehicle: other 105 % of control | dose: 50.0 mg/kg/injection, schedule: Q01DX001 (ip), vehicle: other 108 % of control | dose: 75.0 mg/kg/injection, schedule: Q01DX001 (ip), vehicle: other 109 % of control | dose: 112.0 mg/kg/injection, schedule: Q01DX001 (ip), vehicle: other 108 % of control

CCOC(=O)C(C)(C)CN(C)CC(C)(C)C=O
inactive: dose: 100.0 mg/kg/injection, schedule: Q04DX002 (ip), vehicle: saline 97 % of control | dose: 200.0 mg/kg/injection, schedule: Q04DX002 (ip), vehicle: saline 108 % of control | dose: 400.0 mg/kg/injection, schedule: Q04DX002 (ip), vehicle: saline 101 % of control

Cc1c2cnccc2c(C)c2c1c1ccccc1n2CCN(C)C
inactive: dose: 12.5 mg/kg/injection, schedule: Q04DX003 (ip), vehicle: saline 105 % of control | dose: 25.0 mg/kg/injection, schedule: Q04DX003 (ip), vehicle: saline 97 % of control | dose: 50.0 mg/kg/injection, schedule: Q04DX003 (ip), vehicle: saline 102 % of control | [13] 113 % of control

CC(=O)Nc1ccc(Cc2ccc(N=Cc3ccccc3)cc2)cc1
inactive: dose: 100.0 mg/kg/injection, schedule: Q01DX001 (ip), vehicle: saline 101 % of control | dose: 200.0 mg/kg/injection, schedule: Q01DX001 (ip), vehicle: saline 104 % of control | dose: 400.0 mg/kg/injection, schedule: Q01DX001 (ip), vehicle: saline 98 % of control

CCCCCCCC(=O)NCCCC
inactive: [1] 105 % of control | [14] 99 % of control | [3] 95 % of control | [15] 101 % of control | [5] 109 % of control | [16] 99 % of control

O=C(c1ccccc1)c1cc(CN(CCCl)CCCl)c(O)cc1O
inactive: dose: 100.0 mg/kg/injection, schedule: Q01DX001 (ip), vehicle: carboxymethylcellulose (CMC) 106 % of control | dose: 200.0 mg/kg/injection, schedule: Q01DX001 (ip), vehicle: carboxymethylcellulose (CMC) 117 % of control | dose: 400.0 mg/kg/injection, schedule: Q01DX001 (ip), vehicle: carboxymethylcellulose (CMC) 122 % of control

COc1ccc(OC)c(NC(=O)N(CCC#N)C2CCCCC2)c1
inactive: [2] 91 % of control | [4] 91 % of control

O=c1[nH]nc(-c2ccccn2)o1
inactive: [7] 97 % of control | [8] 90 % of control | [9] 97 % of control

O=S(=O)(Cc1ccccc1)C(Br)c1ccccc1 (stereo not drawn)
inactive: [10] 101 % of control | [14] 108 % of control | [11] 96 % of control | [15] 97 % of control | dose: 400.0 mg/kg/injection, schedule: Q01DX001 (ip), vehicle: other 98 % of control | [16] 87 % of control
